Measurements taken from patent US20040072746A1, “Inhibitors of monocarboxylate transport” (priority 2001, published 2004).
Where two headings read alike, the source gives them in different places.

Legend:
[1] = system: peripheral blood mononuclear cells (PBMC); assay: T-lymphocyte proliferation, PMA/ionomycin stimulated PBMC, 3 days; details: Homo sapiens, 72 h, read-out: pIA50 Proliferation (3 days) (converted)
From the text: The cell signalling pathways triggered by T-cell activation through the T cell receptor and CD28 can be mimicked in vitro using a phorbol ester, phorbol 12-myristate 13-acetate (PMA), which activates protein kinase C, and ionomycin, which induces calcium release from internal cellular stores. PMA and ionomycin-stimulated proliferation of peripheral blood mononuclear cells (PBMC), of which the predominant cell type is T-lymphocytes, provides a suitable assay for measuring the ability of small molecules to block T-cell proliferation.
Blood was centrifuged at 850 g for 10 minutes and the plasma was removed. […] The blood/Lymphoprep layers were centrifuged at 850 g for 20 minutes at 18° C. (with no brake).
10 μl of compound in solution was then added to the 96-well flat bottom assay plate (final volume of 200 μl). […] Both were diluted to 4× the final assay concentration in complete medium. 50 μl of each reagent was dispensed per well to give a final assay concentration of 0.5 ng/ml PMA and 500 ng/ml ionomycin. Control wells received 100 μl cells with PMA only (negative control 1), with ionomycin only (negative control 2) and 100 μl cells with 50 μl PMA and 50 μl ionomycin with no test compound (positive control). 100 μl complete medium was added to the negative controls. […]

human MCT1 = biological target: T1, human MCT1 (Homo sapiens, UniProt P53985, D490E); assay: Lactate uptake by change in intracellular pH (BCECF) in INS-1 cells expressing MCT; format: cell-based; details: 100 nM, INS-1 cells expressing human MCT1, n=2
T1 sequence (P53985 1-500 D490E): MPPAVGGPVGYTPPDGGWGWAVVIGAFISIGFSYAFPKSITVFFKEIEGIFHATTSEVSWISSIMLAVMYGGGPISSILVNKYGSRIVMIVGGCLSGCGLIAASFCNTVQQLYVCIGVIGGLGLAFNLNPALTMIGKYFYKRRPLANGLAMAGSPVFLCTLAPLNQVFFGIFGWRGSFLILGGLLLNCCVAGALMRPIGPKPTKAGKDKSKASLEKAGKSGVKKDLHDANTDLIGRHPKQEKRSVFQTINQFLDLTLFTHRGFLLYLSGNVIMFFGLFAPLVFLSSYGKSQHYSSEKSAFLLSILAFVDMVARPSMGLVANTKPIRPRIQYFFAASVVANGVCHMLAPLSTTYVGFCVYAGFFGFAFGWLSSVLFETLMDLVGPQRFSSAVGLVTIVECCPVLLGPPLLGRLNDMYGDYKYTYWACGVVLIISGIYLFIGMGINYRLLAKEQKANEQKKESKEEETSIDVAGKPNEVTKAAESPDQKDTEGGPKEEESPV
T1 sequence (P26453 142-388 partner limits assumed): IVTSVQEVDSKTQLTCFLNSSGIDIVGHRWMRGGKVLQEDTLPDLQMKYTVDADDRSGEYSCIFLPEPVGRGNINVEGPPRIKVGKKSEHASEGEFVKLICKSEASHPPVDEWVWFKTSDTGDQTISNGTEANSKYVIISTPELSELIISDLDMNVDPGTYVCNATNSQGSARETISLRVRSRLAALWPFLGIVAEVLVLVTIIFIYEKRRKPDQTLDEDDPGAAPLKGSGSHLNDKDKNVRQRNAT
From the text: As lactate entry into cells is proton-linked, the addition of exogenous lactate to cells expressing functionally active MCT isoforms results in a significant decrease in intracellular pH. Lactate uptake by this method can be measured in cells endogenously expressing MCT isoforms (e.g., K562 and MDA-MB231 cells) or in cells transfected with cloned MCT isoforms (e.g., MCT1, 3 and 4) expressed in SF9 or INS-1 cells as follows. […] INS-1 cells were transfected with pcDNA3-hMCT1 using the Fugene™ 6 Transfection Reagent (Roche Molecular Biochemicals, Indianapolis, Ind., USA) to manufacturers instructions. Stably transfected cells were selected with 100 μg/ml Genetecin (Gibco Laboratories, Grand Island, N.Y.) to generate INS-1 MCT1 mixed populations, which were subsequently dilution cloned to generate INS-1 MCT1 clones. […]
Following BCECF labelling, 10 μl of the relevant cell suspension was added to each well of a 96 well plate (Biocat Poly-D-Lysine coated clear-bottomed black plates, Becton Dickinson) and 10 μl of inhibitor or vehicle control was added per well at 10× final concentration. […] The 96 well plate was then placed in the FLEXstation and fluorescence was measured using the following wavelengths:
The experiment was set up so that a reading at time zero was made, the lactate was added to the plate, and then readings were made every 3 seconds for 3 mins. […]

activated T-lymphocytes [2] = assay: Extracellular lactate levels in activated T-lymphocytes (lactate oxidase); format: cell-based, human; details: Homo sapiens, T-lymphocyte; Mean±s.e.mean (mean±range for n=2); read-out: pIA50 Extracellular Lactate (converted)
Procedure: (§1) PBMCs were prepared as described above by separation over Lymphoprep and T-lymphocytes were then enriched by purification on a nylon wool column. Briefly, 0.6 g nylon wool was inserted into a 10 ml syringe and this was autoclaved. […] The PBMC were resuspended in 1 ml of pre-warmed RPMI (20% HS) and were loaded onto the nylon wool column. The column was incubated for 45 min at 37° C. followed by elution of the T-cells by adding 10 ml RPMI (20% HS) (prewarmed to 37° C.) dropwise to the column. The T-cells obtained from the elution of the column were centrifuged (850 g for 5 min) and resuspended in RPMI containing L-glutamine and 5% human serum and stimulated with 0.5 ng/ml PMA and 500 ng/ml lonomycin for 48 h.
20 μl of each concentration were added to triplicate wells of a 96-well plate. T-cells were then added (200 μl per well, 2×10^5 cells) and were cultured for 4 h under standard cell culture conditions. The cell supernatants were collected from each well after the cells were pelleted by centrifugation of the plate at 850 g for 5 min at 4° C. 10 μl of each supernatant sample were used for the lactate determination.
(§2) The assay was carried out in 96-well plates at room temperature. 10 μl of standard or sample were added to each well followed by 200 μl of the Lactate Reagent. […] The data were collected and analysed using SOFTmax PRO software (Molecular Devices).

Splenic B-lymphocytes = assay: Inhibition of B-lymphocyte proliferation; format: cell-based, Balb/c mice; details: 48 hours
Procedure: Splenic B-lymphocytes were obtained from Balb/c mice by disruption of the spleen through a nylon sieve. The resultant cellular suspension was washed three times by centrifugation. The spleen cells were then plated out in flat-bottomed 96 well microtitre plates at a concentration of 2-4×10^5 cells per well. B-lymphocyte stimulators were added with or without compound. Stimulators employed were lipopolysaccharide (LPS) at 50 μg/ml, 8-mercaptoguanosine (8MG) at 100 μg/ml, or goat anti mouse IgM at 40 μg/ml. […] The cultures were incubated for 48 hours at 37° C. and pulsed with tritiated thymidine for the final 6 hours. The cells were harvested as described previously and thymidine uptake used as a measure of DNA synthesis.

activated T-lymphocytes [3] = assay: DNA synthesis ([3H]-thymidine incorporation) in activated T-lymphocytes; format: cell-based; details: Homo sapiens, T-lymphocyte; Mean±s.e.mean (mean±range for n=2); read-out: pIA50 DNA (converted)
Procedure: as §1
DNA synthesis was assessed by measuring the incorporation of [^3H]-thymidine. The assay was carried out in a 96-well plate. 20 μl of test compounds at 10× the final concentration were added to the plate followed by 200 μl of T-cells per well (2×10^5 cells). The cells were cultured for 4 h under standard cell culture conditions and cultures were pulsed with ^3H-thymidine (0.5 μCi/well; Amersham) for the final hour of the incubation.

activated T-lymphocytes [4] = assay: Intracellular lactate levels in activated T-lymphocytes (lactate oxidase); format: cell-based; details: Homo sapiens, T-lymphocyte; Mean±s.e.mean (mean±range for n=2); read-out: pIA50 Intracellular Lactate (converted)
Procedure: as §1
100 μl of each concentration were added to triplicate wells of a 24-well plate. T-cells were then added (1 ml per well) and were cultured for 4 h under standard cell culture conditions. The cells were then transferred from each well to microfuge tubes and were centrifuged at 360 g for 5 min at 4° C. The supernatant was discarded and the cell pellet was resuspended in 1 ml of ice-cold PBS, pH5.0. The cells were washed twice in PBS by centrifugation (360 g, 5 min, 4° C.) followed by resuspension of the cell pellet in 100 μl deionized water. The cells were incubated for 15 min at 4° C. to allow cell lysis to occur and the cell debris was removed by centrifugation at 15000 g for 10 min at 4° C. 10 μl of each supernatant sample were used for the lactate determination.
as §2

[5] = MCT filter binding assay, yeast membranes transformed with vector only; details: ~2.5 nM radioligand
Procedure: (§3) For yeast cells transformed with expression plasmids containing the human MCT 1-4 ORFs the ability of membrane preparations to bind radioligand was determined using a single ligand concentration/multi protein concentration binding assay. This generated an estimate of the amount of active binding protein present in each membrane preparation. The ligand concentration used will give an estimate of Bmax that is approximately 90% of the true value. 10 μl of ligand A, B or C that had been diluted 50 fold with assay buffer (50 mM HEPES, 0.1 mM EDTA, 0.15 M NaCl, pH 7.5, 0.5% BSA) was dispensed into wells of a polypropylene microtitre plate. This gives a final radiolabelled ligand concentration of ˜2.5 nM. […] The membranes were diluted to give a known amount/180 μl assay buffer. This is typically in the […] range. For the membranes with high binding site number a more dilute membrane preparation should be added. 180 μl of each membrane solution was then added to each well and incubated at 2 hours at room temperature with shaking. The membranes were harvested onto GF-B filter plates and washed with assay buffer without BSA, dried, scintillant added and counts detected using the relevant program for each ligand on a Packard Top Count plate reader.

human MCT2 = biological target: T2, human MCT2 (Homo sapiens, UniProt O60669); assay: MCT filter binding assay, yeast membranes, radioligand specific binding; details: ~2.5 nM radioligand
T2 construct: The full length open reading frame for human MCT2 was then subcloned into the S. cerevisiae expression plasmid, pACES14; made in house; host or cells: Saccharomyces cerevisiae BY4742 (jen1 deletion), membrane preparation; plasmid pACES14-hMCT2
T2 sequence (O60669 1-478): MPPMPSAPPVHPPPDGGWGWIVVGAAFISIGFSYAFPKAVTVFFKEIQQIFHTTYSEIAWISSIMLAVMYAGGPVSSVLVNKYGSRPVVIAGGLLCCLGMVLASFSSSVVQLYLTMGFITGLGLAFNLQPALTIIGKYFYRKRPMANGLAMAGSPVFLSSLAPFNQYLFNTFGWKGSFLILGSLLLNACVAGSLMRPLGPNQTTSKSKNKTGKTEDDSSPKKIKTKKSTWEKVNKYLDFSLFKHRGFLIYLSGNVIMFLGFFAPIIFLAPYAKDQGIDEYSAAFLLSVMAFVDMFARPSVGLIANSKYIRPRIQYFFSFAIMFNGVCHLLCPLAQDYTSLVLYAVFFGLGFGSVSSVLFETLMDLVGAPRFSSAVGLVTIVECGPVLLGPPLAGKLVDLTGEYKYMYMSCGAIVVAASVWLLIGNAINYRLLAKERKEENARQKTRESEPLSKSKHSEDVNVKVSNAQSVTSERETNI
Procedure: as §3

human MCT4 = biological target: T3, human MCT4 (Homo sapiens, UniProt O15427); assay: as above; details: ~2.5 nM radioligand
T3 construct: from the full length copy and subcloned into the S. cerevisiae expression plasmid pACES14; made in house; host or cells: Saccharomyces cerevisiae BY4742 (jen1 deletion), membrane preparation; plasmid pACES14-hMCT4
T3 sequence (O15427 1-465): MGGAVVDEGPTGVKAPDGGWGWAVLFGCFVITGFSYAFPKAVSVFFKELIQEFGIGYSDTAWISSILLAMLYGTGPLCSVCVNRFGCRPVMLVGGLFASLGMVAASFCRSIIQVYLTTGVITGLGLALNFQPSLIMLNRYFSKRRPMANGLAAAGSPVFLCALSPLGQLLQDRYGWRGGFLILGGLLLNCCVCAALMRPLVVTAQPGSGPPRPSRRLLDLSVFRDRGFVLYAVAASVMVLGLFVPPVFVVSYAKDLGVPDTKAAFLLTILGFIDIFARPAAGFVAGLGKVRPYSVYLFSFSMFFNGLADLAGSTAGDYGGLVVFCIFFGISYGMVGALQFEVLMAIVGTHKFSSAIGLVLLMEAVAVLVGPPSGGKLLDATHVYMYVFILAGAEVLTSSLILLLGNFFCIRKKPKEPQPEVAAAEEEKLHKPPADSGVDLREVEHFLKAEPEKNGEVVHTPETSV
Procedure: as §3

human MCT3 = biological target: T4, human MCT3 (Homo sapiens, UniProt O95907); assay: as above; details: ~2.5 nM radioligand
T4 construct: the full length open reading frame of human MCT3 was subcloned into the S. cerevisiae expression plasmid pACES14; made in house; host or cells: Saccharomyces cerevisiae BY4742 (jen1 deletion), membrane preparation; plasmid pACES14-hMCT3
T4 sequence (O95907 1-504): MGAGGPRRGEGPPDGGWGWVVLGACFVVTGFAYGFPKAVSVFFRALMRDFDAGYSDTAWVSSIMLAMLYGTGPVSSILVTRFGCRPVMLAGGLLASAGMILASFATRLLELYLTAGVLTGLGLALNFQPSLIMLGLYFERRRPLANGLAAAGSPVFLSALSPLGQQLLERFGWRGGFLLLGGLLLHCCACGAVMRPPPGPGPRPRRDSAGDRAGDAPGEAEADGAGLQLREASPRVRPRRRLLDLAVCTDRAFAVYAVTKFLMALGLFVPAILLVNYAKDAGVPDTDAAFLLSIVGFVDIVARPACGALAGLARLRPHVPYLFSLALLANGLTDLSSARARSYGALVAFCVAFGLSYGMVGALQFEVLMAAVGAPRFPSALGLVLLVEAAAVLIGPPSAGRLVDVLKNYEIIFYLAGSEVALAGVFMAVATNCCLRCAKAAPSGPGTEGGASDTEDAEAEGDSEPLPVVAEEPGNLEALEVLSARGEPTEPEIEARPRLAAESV
Procedure: as §3

MDA-MB-231 cell line = assay: Filter binding of 3H-ligand C to MDA-MB-231 cells; parameters: species or system human; details: untransfected MDA-MB-231
Procedure: The human breast cell line MDA-MB-231 had been previously identified as expressing low levels of MCT1 (Garcia et al., Cell. 76:865-873, 1994). The MDA-MB-231 cell line was grown. […] The cells were grown and transfected with pcDNA3-hMCT1. An increase in filter binding of ^3H-ligand C was consistently measured for transiently transfected cells when compared with control cells transfected with empty vector.

MCT1 = biological target: T5, MCT1 (Homo sapiens, UniProt P53985, D490E); assay: MCT filter binding assay, yeast membranes, radioligand specific binding; parameters: made in house; host or cells: Saccharomyces cerevisiae BY4742 (jen1 deletion), membrane preparation; plasmid pACES14-hMCT1; details: ~2.5 nM radioligand
T5 sequence (P53985 1-500 D490E): T1 sequence (P53985 1-500 D490E)
Procedure: as §3

## CC(C)Cc1nn(C)c(=O)c2c(SCCCO)n(Cc3cccc4ccccc34)cc12 [Ligand 2, 2,6-dihydro-7-[(3-hydroxypropyl)thio]-2-methyl-4-(2-methylpropyl)-6-(1-napthanlenylmethyl)-1H-pyrrolo[3,4-d]pyridazin-1-one]
[1]
  IC50: 0.38 nM
Human MCT1
  effect on decrease in intracellular pH on addition of exogenous lactate: completely abolished
Activated T-lymphocytes [2]
  IC50: 0.794 nM
Splenic B-lymphocytes; Mus musculus, 8-mercaptoguanosine 100 μg/ml, partial inhibition, read-out: IA50, proliferative response to 8MG
  IC50: 10 nM
Splenic B-lymphocytes; Mus musculus, LPS 50 μg/ml, partial inhibition, read-out: IA50, proliferative response to LPS
  IC50: 5 nM
Splenic B-lymphocytes; goat anti mouse IgM 40 μg/ml, weak, read-out: IA50, proliferative response to goat anti-mouse IgM
  IC50: > 100 nM
Activated T-lymphocytes [3]
  IC50: 1.35 nM
Activated T-lymphocytes [4]
  EC50: 0.55 nM

## [3H]CC([3H])(C[3H])Cn1c(=O)n(C)c(=O)c2c(SCCCO)n(Cc3cccc4ccccc34)cc21 [Ligand C, 5-[(3-Hydroxypropyl)thio]-1-([2,3,3′-^3H]isobutyl)-3-methyl-6-(1-naphthalenylmethyl)-1H-pyrrolo[3,4-d]pyrimidine-2,4(3H,6H)-dione]
[5]; vector (2 ug)
  Specific binding (cpm) Average: 0 cpm
[5]; vector (20 ug)
  Specific binding (cpm) Average: 0 cpm
Human MCT2; MCT2 (2 ug)
  Specific binding (cpm) Average: 593 cpm
Human MCT2; MCT2 (20 ug)
  Specific binding (cpm) Average: 213 cpm
Human MCT4; MCT4 (2 ug)
  Specific binding (cpm) Average: 81 cpm
Human MCT4; MCT4 (20 ug)
  Specific binding (cpm) Average: 0 cpm
Human MCT3; MCT3 (2 ug)
  Specific binding (cpm) Average: 0 cpm
Human MCT3; MCT3 (20 ug)
  Specific binding (cpm) Average: 40 cpm
MDA-MB-231 cell line
  binding sites per cell: ~6000 binding sites per cell
MCT1; MCT1 (2 ug)
  Specific binding (cpm) Average: 3621 cpm
MCT1; MCT1 (20 ug)
  Specific binding (cpm) Average: 5553 cpm
